Bridge positions count the residues as written; N and C are the ends. Square brackets hold non-standard residues; d marks the D form. Peptide text beside a SMILES is read from it. * marks the point of attachment. Phe(3-CF3) = N[C@@H](Cc1cccc(C(F)(F)F)c1)C(=O)O; Phe(4-COOH) = N[C@@H](Cc1ccc(C(=O)O)cc1)C(=O)O; Bip = N[C@@H](Cc1ccc(-c2ccccc2)cc1)C(=O)O; NH(CH2)14COOH = O=C(O)CCCCCCCCCCCCCCN*; Phe(3-Me) = Cc1cccc(C[C@H](N)C(=O)O)c1; PEG6 = NCCOCCOCCOCCOCCOCCOCCC(=O)O; Cha = N[C@@H](CC1CCCCC1)C(=O)O; aThr = C[C@H](O)[C@H](N)C(=O)O; Carboxymethyl = O=C(O)C*; Orn = NCCC[C@H](N)C(=O)O; Dab = NCC[C@H](N)C(=O)O
Target: T1, PD-1/PD-L1 interaction (PE-labeled human PD-L1-Ig binding to Jurkat cell line over-expressing human PD-1) (Homo sapiens, UniProt Q15116)
T1 construct: expressed in transfected cells; host or cells: Jurkat
T1 sequence (Q15116 25-288): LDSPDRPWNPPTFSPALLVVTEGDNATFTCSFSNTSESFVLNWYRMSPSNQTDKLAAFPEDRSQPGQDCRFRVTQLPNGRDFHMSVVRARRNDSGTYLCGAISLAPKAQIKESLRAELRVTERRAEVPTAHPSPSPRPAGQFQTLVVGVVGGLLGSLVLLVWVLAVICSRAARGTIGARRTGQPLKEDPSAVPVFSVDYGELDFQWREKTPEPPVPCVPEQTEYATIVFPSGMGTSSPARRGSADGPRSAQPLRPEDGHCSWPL
Assay: Jurkat-PD-1 Cell Binding High-Content Screening Assay (CBA)
Assay type: cell-based
Details: Jurkat cell line over-expressing human PD-1; PE-labeled PD-L1-Ig 20 nM final; read-out: Jurkat hPD1-PDL1 IC50
Outline: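 Binding of fluorescent PD-L1-Ig (phycoerythrin on Ig tag, 20 nM final, 1 h) measured by high-content imaging of fixed, Hoechst-counterstained Jurkat-hPD-1 cells. Compound added 2 h at 37° C beforehand, in DMEM with 10% fetal calf serum.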

With `Cc1cccc(C[C@@H]2NC(=O)[C@H](CC(=O)O)NC(=O)[C@H](Cc3ccc(OCC(=O)O)cc3)NC(=O)[C@H]([C@H](C)O)NC(=O)CSC[C@@H](C(=O)N[C@@H](CCN)C(=O)NCCOCCOCCOCCOCCOCCOCCC(=O)NCCCCCCCCCCCCCCC(=O)O)NC(=O)[C@H](CCC(=O)O)NC(=O)[C@H](C(C)C)NC(=O)[C@H](CC3CCCCC3)NC(=O)[C@H](CCN)NC(=O)[C@@H](CC(C)C)NC(=O)[C@H](CCCN)NC(=O)[C@H](Cc3ccc(OCC(=O)O)cc3)NC(=O)[C@H](Cc3ccc(-c4ccccc4)cc3)NC(=O)[C@H](Cc3ccc(C(=O)O)cc3)NC2=O)c1` [Compound 3911] ({CH2CO}-[aThr]Y(Carboxymethyl)D[Phe(3-Me)][Phe(4-COOH)][Bip]Y(Carboxymethyl)[Orn][dL][Dab][Cha]VEC[Dab][PEG6]-{NH(CH2)14COOH}; thioether N-14) the IC50 was 90.5 nM.

Compound `CC(C)C[C@H]1NC(=O)[C@H](CCCN)NC(=O)[C@H](Cc2ccc(OCC(=O)O)cc2)NC(=O)[C@H](Cc2ccc(-c3ccccc3)cc2)NC(=O)[C@H](Cc2ccc(C(=O)O)cc2)NC(=O)[C@H](Cc2cccc(C(F)(F)F)c2)NC(=O)[C@H](CC(=O)O)NC(=O)[C@H](Cc2ccc(OCC(=O)O)cc2)NC(=O)[C@H]([C@H](C)O)NC(=O)CSC[C@@H](C(=O)N[C@@H](CCN)C(=O)NCCOCCOCCOCCOCCOCCOCCC(=O)NCCCCCCCCCCCCCCC(=O)O)NC(=O)[C@H](CCC(=O)O)NC(=O)[C@H](C(C)C)NC(=O)[C@H](CC2CCCCC2)NC(=O)[C@H](CCN)NC1=O` [Compound 3912] ({CH2CO}-[aThr]Y(Carboxymethyl)D[Phe(3-CF3)][Phe(4-COOH)][Bip]Y(Carboxymethyl)[Orn][dL][Dab][Cha]VEC[Dab][PEG6]-{NH(CH2)14COOH}; thioether N-14) has an IC50 of 252 nM.
